The structures appear in SMILES notation.

Holding throughout (format): in vivo
In test [1] the test system is barnyard grass. Briefly: Herbicidal activity test against upland field weeds (foliar treatment test). The following applies: Echinochloa crus-galli, scale 0-100; for pest or weed control at 75 g/ha: 75 g ai/ha; for pest or weed control at 50 g/ha: 50 g ai/ha. In outline: (§1)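 Visual 0–100 control ratings relative to untreated plants, taken 14 (or 21) days after spraying foliage at 50 or 75 g a.i./ha. Spray solution: 50% acetone with 0.1% Tween-20; plants kept in greenhouse at 30±5 °C, 14 h light/10 h dark.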

The test system of test [2] is black nightshade. Described as above. On the set-up: key to Foliar treatment herbicidal activity, black nightshade: 0 (no control); 100 (complete control). The following applies: scale 0-100; for Foliar treatment herbicidal activity, black nightshade: 75 g ai/ha; for pest or weed control at 50 g/ha: Solanum nigrum, 50 g ai/ha. The method, boiled down:
as §1

For test [3], the system named is barnyard grass. Briefly: Herbicidal activity test against upland field weeds (soil treatment test). On the set-up: key to Soil treatment herbicidal activity, barnyard grass: 0 (no control); 100 (complete control). As to conditions: scale 0 (no control) to 100 (complete control). The method, boiled down:
(§2)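 Weed control scored visually on a 0 (none) to 100 (complete) scale versus untreated pots at 14 or 21 days in greenhouse (30±5 °C, 14 h light). Test compounds, 50 or 75 g a.i./ha in 50% acetone/0.1% Tween-20, hand-sprayed onto soil one day post-sowing.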

Test [4] deals with cocklebur. Described as above. On the set-up: key to Soil treatment herbicidal activity, Cocklebur: 0 (no control); 100 (complete control). As to conditions: scale 0 (no control) to 100 (complete control). The method, then: (§3) Experimental Example 2: Herbicidal Activity Test Against Upland Field Weeds (Soil Treatment Test) Soil treatment was performed as follows: After filling a square plastic pot having a surface area of 350 cm^2 with sandy loam mixed with 1 g per pot (350 cm^2) of horticultural mixed fertilizer (N:P:K=11:10:11), seeds (10˜15 grains) or rootstocks (2 pieces) of 5 kinds of grassy weeds of sorghum, barnyard grass, quack grass, crabgrass, fall panicum, and 5 kinds of broadleaf weeds of black nightshade, indian jointvetch, velvetleaf, cocklebur, bindweed, which had been stored in a low temperature (6° C.), were sown. The day after sowing, test compound solutions were made by diluting with a preparation solution (including 50% acetone, 0.1% Tween-20) so that the final treatment amount of the test compounds was 50 or 75 g a.i./ha. The prepared test compound solution was used for treating soil surface by hand-spraying 14 mL per pot in a fume hood. After the treatment, it was managed under the same greenhouse conditions (average temperature 30±5° C., light/dark=14/10 hours), and after 14 days (after 21 days if necessary), the external symptoms and efficacy were investigated according to the scale of 0 (no control) to 100 (complete control). The results of Table 8 were obtained by evaluating weed control value to the untreated control by conducting visual assessment.

The test system of test [5] is bindweed. The description is as above. As to conditions: scale 0 (no control) to 100 (complete control); for pest or weed control at 75 g/ha: 75 g ai/ha. The method, then:
as §3

Test [6] relates to fall panicum. The description is as above. As to conditions: scale 0 (no control) to 100 (complete control); for Soil treatment herbicidal activity, Fall panicum: 75 g ai/ha; for pest or weed control at 50 g/ha: Panicum dichotomiflorum, 50 g ai/ha. On the set-up: key to Soil treatment herbicidal activity, Fall panicum: 0 (no control); 100 (complete control). In outline: as §2
In test [7] the test system is velvetleaf. The experiment in a line: Herbicidal activity test against upland field weeds (foliar treatment test). On the set-up: key to Foliar treatment herbicidal activity, velvet leaf: 0 (no control); 100 (complete control). The following applies: for pest or weed control at 50 g/ha: 50 g ai/ha. The method, boiled down:
as §1

The subject of test [8] is indian jointvetch. Briefly: Herbicidal activity test against upland field weeds (soil treatment test). On the set-up: key to Soil treatment herbicidal activity, Indian jointvetch: 0 (no control); 100 (complete control). The following applies: scale 0 (no control) to 100 (complete control). The method, boiled down:
as §2

Test [9] relates to sorghum. Described as above. The following applies: Sorghum, scale 0 (no control) to 100 (complete control); for plant injury at 75 g/ha: 75 g ai/ha; for plant injury at 50 g/ha: 50 g ai/ha. The method, boiled down: as §2
Test [10] relates to cocklebur. Briefly: Herbicidal activity test against upland field weeds (foliar treatment test). As to conditions: Xanthium strumarium, scale 0-100; for pest or weed control at 75 g/ha: 75 g ai/ha; for pest or weed control at 50 g/ha: 50 g ai/ha. In outline: as §1
Test [11] deals with velvetleaf. The experiment in a line: Herbicidal activity test against upland field weeds (soil treatment test). On the set-up: key to Soil treatment herbicidal activity, velvet leaf: 0 (no control); 100 (complete control). As to conditions: scale 0 (no control) to 100 (complete control). In outline: as §2
Test [12] relates to crabgrass. Briefly: Herbicidal activity test against upland field weeds (foliar treatment test). As to conditions: Digitaria sanguinalis, scale 0-100; for pest or weed control at 75 g/ha: 75 g ai/ha; for pest or weed control at 50 g/ha: 50 g ai/ha. In outline: as §1
In test [13] the test system is quack grass. The test is described as above. On the set-up: key to Foliar treatment herbicidal activity, quack grass: 0 (no control); 100 (complete control). The following applies: scale 0-100. In outline:
as §1

The subject of test [14] is bindweed. The test is described as above. The following applies: scale 0-100; for pest or weed control at 75 g/ha: 75 g ai/ha; for pest or weed control at 50 g/ha: 50 g ai/ha. The method, boiled down:
as §1

Test [15] deals with indian jointvetch. The description is as above. The following applies: scale 0-100; for pest or weed control at 75 g/ha: 75 g ai/ha; for pest or weed control at 50 g/ha: 50 g ai/ha. The method, boiled down:
as §1

Test [16] has as its system black nightshade. The experiment in a line: Herbicidal activity test against upland field weeds (soil treatment test). On the set-up: key to Soil treatment herbicidal activity, black nightshade: 0 (no control); 100 (complete control). As to conditions: scale 0 (no control) to 100 (complete control). The method, boiled down: as §2
For test [17], the system named is sorghum. Briefly: Herbicidal activity test against upland field weeds (foliar treatment test). The following applies: Sorghum, scale 0-100; for plant injury at 75 g/ha: 75 g ai/ha; for plant injury at 50 g/ha: 50 g ai/ha. The method, boiled down: as §1
In test [18] the test system is fall panicum. Described as above. As to conditions: Panicum dichotomiflorum, scale 0-100; for pest or weed control at 75 g/ha: 75 g ai/ha; for pest or weed control at 50 g/ha: 50 g ai/ha. The method, boiled down: as §1
Test [19] has as its system quack grass. The experiment in a line: Herbicidal activity test against upland field weeds (soil treatment test). On the set-up: key to Soil treatment herbicidal activity, quack grass: 0 (no control); 100 (complete control). The following applies: scale 0 (no control) to 100 (complete control). In outline:
as §2

Test [20] concerns crabgrass. The description is as above. On the set-up: key to Soil treatment herbicidal activity, Crabgrass: 0 (no control); 100 (complete control). The following applies: 50 g ai/ha, scale 0 (no control) to 100 (complete control). The method, boiled down: as §2
Where [21] appears, read: Abutilon theophrasti, scale 0-100, read-out: Foliar treatment herbicidal activity, velvet leaf.

In general, plant injury refers to the degree to which the test organism was suppressed or injured, in per cent. As to `CN(Cc1ncn(C)n1)c1nc(C(F)(F)F)ccc1C(=O)Nc1nnnn1C` [Compound No. 2-35, 2-(methyl((1-methyl-1H-1,2,4-triazol-3-yl)methyl)amino)-N-(1-methyl-1H-tetrazol-5-yl)-6-(trifluoromethyl)nicotinamide], the pest or weed control at 75 g/ha was 80% in test [1]; 95% in [4] (Xanthium strumarium, 75 g ai/ha); 70% in [5]; 90% in [7] (Abutilon theophrasti, 75 g ai/ha, scale 0-100, read-out: Foliar treatment herbicidal activity, velvet leaf); 90% in test [10]; 70% in test [12]. Further, the pest or weed control at 75 g/ha in test [14] is 70%; in [15], 80%; in test [18] it was 80%. Moreover, in [2], the “Foliar treatment herbicidal activity, black nightshade” value is listed as 100. Also, in test [3] (75 g ai/ha), the “Soil treatment herbicidal activity, barnyard grass” value is on record as 100. Also, in test [6], the “Soil treatment herbicidal activity, Fall panicum” value stood at 100. Also, in test [8] (75 g ai/ha), the “Soil treatment herbicidal activity, Indian jointvetch” value is 100. The plant injury at 75 g/ha in test [9] amounted to 90%; in test [17], 70%. Besides, the “Soil treatment herbicidal activity, velvet leaf” value in test [11] (75 g ai/ha) turned out to be 100. Moreover, in test [13] (75 g ai/ha), the “Foliar treatment herbicidal activity, quack grass” value was determined as 0. For the same compound, the “Soil treatment herbicidal activity, black nightshade” value in test [16] (75 g ai/ha) came out at 100. For the same compound, the “Soil treatment herbicidal activity, quack grass” value in [19] (75 g ai/ha) was determined as 0.

For the compound `CCN(Cc1nnn(C)n1)c1nc(C(F)(F)F)ccc1C(=O)Nc1nnnn1C` [Compound No. 2-27, 2-(ethyl((2-methyl-2H-tetrazol-5-yl)methyl)amino)-N-(1-methyl-1H-tetrazol-5-yl)-6-(trifluoromethyl)nicotinamide], the pest or weed control at 75 g/ha in test [1] was determined as 80%; in [5], 98%; in test [10], 98%; in test [12], 20%; in test [14] it was 40%; in test [15], 70%. The pest or weed control at 75 g/ha in [18] was determined as 70%. In addition, the “Foliar treatment herbicidal activity, black nightshade” value in [2] is given as 100. Besides, in test [3] (75 g ai/ha), the “Soil treatment herbicidal activity, barnyard grass” value was found to be 100. For the same compound, the “Soil treatment herbicidal activity, Cocklebur” value in test [4] (75 g ai/ha) was determined as 100. For the same compound, in [6], the “Soil treatment herbicidal activity, Fall panicum” value was 100. Further, the “Foliar treatment herbicidal activity, velvet leaf” value in [7] (75 g ai/ha, scale 0-100) is on record as 100. In addition, in test [8] (75 g ai/ha), the “Soil treatment herbicidal activity, Indian jointvetch” value was found to be 100. Further, the plant injury at 75 g/ha in test [9] was determined as 50%; in test [17], 40%. Besides, in test [11] (75 g ai/ha), the “Soil treatment herbicidal activity, velvet leaf” value is recorded as 100. The “Foliar treatment herbicidal activity, quack grass” value in [13] (75 g ai/ha) is 0. The “Soil treatment herbicidal activity, black nightshade” value in test [16] (75 g ai/ha) is on record as 100. Moreover, the “Soil treatment herbicidal activity, quack grass” value in [19] (75 g ai/ha) is on record as 0.

Regarding `CC(=O)N(C(=O)c1ccc(C(F)(F)F)nc1COCc1nnn(C)n1)c1nnnn1C` [Compound No. 2-67, N-acetyl-N-(1-methyl-1H-tetrazol-5-yl)-2-(((2-methyl-2H-tetrazol-5-yl)methoxy)methyl)-6-(trifluoromethyl)nicotinamide], the pest or weed control at 50 g/ha in [1] came to 70%; in test [2], 95%; in [5] (50 g ai/ha), 70%; in test [6], 90%; in [7] (setting [21]) it was 80%; in test [10], 95%. Also, the pest or weed control at 50 g/ha in test [12] was 70%; in [14], 40%; in test [15], 80%; in test [18], 60%. In addition, the “Soil treatment herbicidal activity, barnyard grass” value in test [3] (50 g ai/ha) is 100. Also, the “Soil treatment herbicidal activity, Cocklebur” value in [4] (50 g ai/ha) turned out to be 100. Further, in test [8] (50 g ai/ha), the “Soil treatment herbicidal activity, Indian jointvetch” value was found to be 100. For the same compound, the figures for the plant injury at 50 g/ha in test [9] and in [17] were 50% and 40%, respectively. For the same compound, the “Soil treatment herbicidal activity, velvet leaf” value in test [11] (50 g ai/ha) is given as 100. For the same compound, the “Foliar treatment herbicidal activity, quack grass” value in test [13] (50 g ai/ha) is reported as 0. In addition, in test [20], the “Soil treatment herbicidal activity, Crabgrass” value came to 100. For the same compound, in [19] (50 g ai/ha), the “Soil treatment herbicidal activity, quack grass” value is reported as 0.

Turning to `CON(Cc1nnn(C)n1)Cc1nc(C(F)(F)Cl)ccc1C(=O)Nc1nnnn1C` [Compound No. 2-79, 6-(chlorodifluoromethyl)-2-((methoxy((2-methyl-2H-tetrazol-5-yl)methyl)amino)methyl)-N-(1-methyl-1H-tetrazol-5-yl)nicotinamide], the pest or weed control at 50 g/ha in test [1] worked out at 80%; in [2], 98%; in test [6], 98%; in test [7] (setting [21]), 80%; in [10], 60%; in test [12], 70%. Moreover, the pest or weed control at 50 g/ha was 95% in test [20] (Digitaria sanguinalis), 40% in [14], 70% in test [15] and 50% in test [18]. Besides, in test [3] (50 g ai/ha), the “Soil treatment herbicidal activity, barnyard grass” value amounted to 100. Moreover, the “Soil treatment herbicidal activity, Cocklebur” value in test [4] (50 g ai/ha) is recorded as 0. In test [8] (50 g ai/ha), the “Soil treatment herbicidal activity, Indian jointvetch” value is 100. In addition, the plant injury at 50 g/ha in test [9] was 30%; in test [17], 20%. Moreover, the “Soil treatment herbicidal activity, velvet leaf” value in [11] (50 g ai/ha) was determined as 100. In addition, in test [13] (50 g ai/ha), the “Foliar treatment herbicidal activity, quack grass” value is 0. For the same compound, the “Soil treatment herbicidal activity, black nightshade” value in test [16] (50 g ai/ha) amounted to 100. In addition, in test [19] (50 g ai/ha), the “Soil treatment herbicidal activity, quack grass” value is recorded as 0.
